Reference: patent publication US20170152269A1, “FUSED BICYCLIC COMPOUNDS AND THEIR USE AS CDK INHIBITORS” (priority 2016, published 2017)

Assays:
[1] = target: T1, CDK6 (Homo sapiens, UniProt Q00534); test: Lance TR-FRET kinase assay, CDK6; format: biochemical
T1 construct: purchased ThermoFisher (Waltham, Mass.)
Protocol: (§1) Time Resolved-Fluorescent Resonance Energy Transfer (TR-FRET) was used to determine inhibitory ability of compounds A1˜A19, B1s and B1˜B12 against the enzymatic activity of CDK1, CDK2, CDK4, CDK5, CDK6, CDK7, and CDK9.
(§2) Inhibitory activity of compounds against CDK1/2/4/5/6/7 was assessed using Lance TR-FRET assay kits from Perkin Elmer Life Sciences (Waltham, Mass.). CDK1/2/4/5/6/7 enzymes were purchased from ThermoFisher (Waltham, Mass.). 2.5 μL of compound solutions and 2.5 μL of enzyme solutions in kinase assay buffer, which was 50 mM HEPES (pH 7.5) with 1 mM EGTA, 1 mM MgCl2, 2 mM DTT, and 0.01% Tween-20, were added into a white OptiPlate-384 plate followed by adding 5 μL of fluorescently labeled peptide substrates (Ulight-4E-BP1 for CDK4/6 and Ulight-MBP for CDK1/2/7/9) and ATP mixture solutions. Final concentrations of substrates and DMSO were 100 nM and 0.5%, respectively. Concentrations of ATP and different CDK enzymes were adjusted accordingly to achieve optimal enzymatic activities. Final CDK concentrations were 100, 500, 600, 100, 50, and 200 ng/well and ATP concentrations were 30, 50, 100, 20, 100, and 50 μM for CDK1/2/4/5/6/7, respectively. Assay plates were covered to protect from light and spun for 1 min at 700 RPM. Reactions were allowed to perform for 60 minutes in dark with gentle shaking at room temperature after which 5 μL of 40 mM EDTA in detection buffer was added to stop reactions followed 5 μL of the Eu labeled antibodies giving final concentrations of 2 nM to detect the phosphorylation of the peptide substrates. Assay plates were read with the EnVision™ Multilabel Reader in TR-FRET mode (excitation at 320 nm and emission at 665 nm). The percent of inhibition was calculated from the means of data points using the formula: 100−(Signalcompound−NoSignalbackground)*100/(Signalvehicle−NoSignalbackground). The IC50s were determined with GraphPad Prism by the non-linear sigmoidal curve fitting of data from 10 doses.

[2] = target: T2, CDK7 (Homo sapiens, UniProt P50613); test: Lance TR-FRET kinase assay, CDK7; format: biochemical; conditions: ATP 50 μM, 60 min, read-out: CDK 7 inhibitory activity (IC50)
T2 construct: purchased ThermoFisher (Waltham, Mass.)
Protocol: as §2, with “2.5 μL of compound solutions and 2.5 μL of enzyme solutions in kinase assay buffer, which was 50 mM HEPES (pH 7.5) with 1 mM EGTA, 1 mM MgCl2, 2 mM DTT, and 0.01% Tween-20, were added into a white OptiPlate-384 plate followed by adding 5 μL of fluorescently labeled peptide substrates (Ulight-4E-BP1 for CDK4/6 and Ulight-MBP for CDK1/2/7/9) and ATP mixture solutions.” left out, “Assay plates were read with the EnVision™ Multilabel Reader in TR-FRET mode (excitation at 320 nm and emission at 665 nm).” left out

[3] = target: T3, CDK9/cyclin T1 (Homo sapiens, UniProt P50750); test: LanthaScreen Eu kinase binding assay, CDK9; conditions: tracer 236 displacement, CDK9/cyclin T1 5 nM, 1 hour; read-out: CDK 9 inhibitory activity (IC50)
T3 construct: purchased ThermoFisher (Waltham, Mass.)
Protocol: as §1
The CDK9 kinase inhibitory activity of compounds was tested in the LanthaScreen Eu kinase binding assay from ThermoFisher. LanthaScreen® Eu Kinase binding assays are based on the binding and displacement of a proprietary, Alexa Fluor® 647-labeled, ATP-competitive kinase inhibitor scaffold (kinase tracer) to CDK9. CDK9/cyclin T1, Kinase tracer 236 and LanthaScreen® Eu-anti-His Antibody were purchased form ThermoFisher (Waltham, Mass.). 5 μL of CDK9/cyclin T1 (final 5 nM)/antibody (final 2 nM) mixture, 5 μL of compound in kinase buffer, and 5 μL of tracer (final 30 nM) were added to wells of a white OptiPlate-384 plate in this specific order. Assay plates were covered to protect from light, spun for 1 min at 700 RPM and incubated at room temperature for 1 hour. Assay plates were read with the EnVision™ Multilabel Reader in TR-FRET mode (excitation at 320 nm and emission at 665 nm). The percent of inhibition was calculated from the means of data points using the formula: 100−(Signalcompound−NoSignalbackgound)*100/(Signalvehicle−NoSignalbackground). The IC50s were determined with GraphPad Prism by the non-linear sigmoidal curve fitting of data from 10 doses.

[4] = target: T4, CDK5 (Homo sapiens, UniProt Q00535); test: Lance TR-FRET kinase assay, CDK5; format: biochemical; conditions: ATP 20 μM, 60 min, read-out: CDK 5 inhibitory activity (IC50)
T4 construct: purchased ThermoFisher (Waltham, Mass.)
Protocol: as §1, §2

[5] = target: T5, CDK1 (Homo sapiens, UniProt P06493); test: Lance TR-FRET kinase assay, CDK1; format: biochemical; conditions: ATP 30 μM, 60 min, read-out: CDK 1 inhibitory activity (IC50)
T5 construct: purchased ThermoFisher (Waltham, Mass.)
Protocol: as §1, §2

[6] = target: T6, CDK2 (Homo sapiens, UniProt P24941); test: Lance TR-FRET kinase assay, CDK2; format: biochemical; conditions: ATP 50 μM, 60 min, read-out: CDK 2 inhibitory activity (IC50)
T6 construct: purchased ThermoFisher (Waltham, Mass.)
Protocol: as §1, §2

[7] = target: T7, CDK4 (Homo sapiens, UniProt P11802); test: Lance TR-FRET kinase assay, CDK4; format: biochemical; conditions: ATP 100 μM, 60 min, read-out: CDK 4 inhibitory activity (IC50)
T7 construct: purchased ThermoFisher (Waltham, Mass.)
Protocol: as §2, with “2.5 μL of compound solutions and 2.5 μL of enzyme solutions in kinase assay buffer, which was 50 mM HEPES (pH 7.5) with 1 mM EGTA, 1 mM MgCl2, 2 mM DTT, and 0.01% Tween-20, were added into a white OptiPlate-384 plate followed by adding 5 μL of fluorescently labeled peptide substrates (Ulight-4E-BP1 for CDK4/6 and Ulight-MBP for CDK1/2/7/9) and ATP mixture solutions.” left out, “Assay plates were read with the EnVision™ Multilabel Reader in TR-FRET mode (excitation at 320 nm and emission at 665 nm).” left out

T2 sequence (P50613 whole entry): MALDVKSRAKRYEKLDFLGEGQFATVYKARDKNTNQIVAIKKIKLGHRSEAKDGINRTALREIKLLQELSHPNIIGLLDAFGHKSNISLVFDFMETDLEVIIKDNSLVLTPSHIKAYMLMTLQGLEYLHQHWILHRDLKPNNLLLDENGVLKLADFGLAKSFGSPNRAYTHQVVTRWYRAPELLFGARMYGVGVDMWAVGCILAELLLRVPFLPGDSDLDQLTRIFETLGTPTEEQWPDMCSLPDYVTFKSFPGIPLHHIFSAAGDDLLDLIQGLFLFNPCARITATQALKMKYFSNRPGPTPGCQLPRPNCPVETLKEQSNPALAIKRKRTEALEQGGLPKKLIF
T2 sequence (P51946 whole entry partner): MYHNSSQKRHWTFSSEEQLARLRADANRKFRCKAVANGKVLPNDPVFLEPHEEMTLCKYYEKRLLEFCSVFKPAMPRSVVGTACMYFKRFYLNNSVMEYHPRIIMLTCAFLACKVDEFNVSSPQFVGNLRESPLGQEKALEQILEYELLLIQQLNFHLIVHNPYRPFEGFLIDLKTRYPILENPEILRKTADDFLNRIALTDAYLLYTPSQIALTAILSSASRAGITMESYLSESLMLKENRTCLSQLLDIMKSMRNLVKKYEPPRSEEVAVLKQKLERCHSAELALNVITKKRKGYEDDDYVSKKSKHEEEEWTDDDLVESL
T2 sequence (P51948 whole entry partner): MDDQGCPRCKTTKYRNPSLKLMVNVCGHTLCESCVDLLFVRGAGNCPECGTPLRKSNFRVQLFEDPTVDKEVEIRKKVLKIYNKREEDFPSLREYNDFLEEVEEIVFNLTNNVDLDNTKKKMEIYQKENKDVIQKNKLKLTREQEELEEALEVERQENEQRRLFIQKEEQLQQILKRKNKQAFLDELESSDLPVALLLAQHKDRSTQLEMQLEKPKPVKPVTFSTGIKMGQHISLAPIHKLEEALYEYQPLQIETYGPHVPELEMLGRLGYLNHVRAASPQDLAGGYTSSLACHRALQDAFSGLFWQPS
T4 sequence (Q00535 whole entry): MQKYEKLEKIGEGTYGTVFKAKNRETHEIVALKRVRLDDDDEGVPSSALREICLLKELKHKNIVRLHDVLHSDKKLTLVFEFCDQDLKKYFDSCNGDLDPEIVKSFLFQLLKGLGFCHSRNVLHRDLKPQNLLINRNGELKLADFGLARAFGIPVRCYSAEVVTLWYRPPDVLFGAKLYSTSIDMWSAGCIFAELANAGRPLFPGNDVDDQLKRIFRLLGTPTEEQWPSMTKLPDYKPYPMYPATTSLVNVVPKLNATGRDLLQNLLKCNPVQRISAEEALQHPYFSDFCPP
T4 sequence (Q15078 whole entry partner): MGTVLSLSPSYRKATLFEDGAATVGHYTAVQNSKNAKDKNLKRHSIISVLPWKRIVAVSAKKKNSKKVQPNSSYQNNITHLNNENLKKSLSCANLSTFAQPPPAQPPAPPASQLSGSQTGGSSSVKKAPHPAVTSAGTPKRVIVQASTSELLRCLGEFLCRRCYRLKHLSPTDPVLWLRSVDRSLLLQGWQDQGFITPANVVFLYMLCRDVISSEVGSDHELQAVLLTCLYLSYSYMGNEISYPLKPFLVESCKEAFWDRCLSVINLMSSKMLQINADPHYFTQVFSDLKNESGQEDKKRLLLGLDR
T1 sequence (Q00534 whole entry): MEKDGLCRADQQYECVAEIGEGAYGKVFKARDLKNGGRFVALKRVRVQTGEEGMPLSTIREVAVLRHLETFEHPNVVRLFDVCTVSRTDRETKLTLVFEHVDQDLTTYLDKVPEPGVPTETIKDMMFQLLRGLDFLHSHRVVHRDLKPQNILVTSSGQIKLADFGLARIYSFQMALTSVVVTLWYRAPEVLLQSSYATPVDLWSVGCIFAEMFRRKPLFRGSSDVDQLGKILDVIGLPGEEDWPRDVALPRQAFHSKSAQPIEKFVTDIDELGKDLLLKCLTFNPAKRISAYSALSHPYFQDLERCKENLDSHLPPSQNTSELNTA
T1 sequence (P24385 whole entry partner): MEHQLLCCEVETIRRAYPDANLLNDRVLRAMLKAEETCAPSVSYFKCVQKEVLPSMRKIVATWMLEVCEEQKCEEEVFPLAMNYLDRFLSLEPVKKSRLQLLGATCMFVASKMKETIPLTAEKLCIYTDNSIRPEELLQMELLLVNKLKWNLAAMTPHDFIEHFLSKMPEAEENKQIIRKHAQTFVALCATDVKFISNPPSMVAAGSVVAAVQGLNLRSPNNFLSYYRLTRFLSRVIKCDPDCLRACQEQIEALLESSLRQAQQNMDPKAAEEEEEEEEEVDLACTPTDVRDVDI
T3 sequence (P50750 whole entry): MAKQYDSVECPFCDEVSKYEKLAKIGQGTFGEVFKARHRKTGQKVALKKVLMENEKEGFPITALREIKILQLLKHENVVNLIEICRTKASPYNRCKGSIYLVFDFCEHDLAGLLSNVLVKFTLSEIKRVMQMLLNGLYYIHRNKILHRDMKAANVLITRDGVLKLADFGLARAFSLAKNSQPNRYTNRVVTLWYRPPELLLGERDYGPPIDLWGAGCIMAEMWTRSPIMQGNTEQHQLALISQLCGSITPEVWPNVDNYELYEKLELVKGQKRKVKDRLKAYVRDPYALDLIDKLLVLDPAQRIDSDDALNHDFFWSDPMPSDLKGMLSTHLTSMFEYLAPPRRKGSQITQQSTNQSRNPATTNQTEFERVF
T3 sequence (O60563 whole entry partner): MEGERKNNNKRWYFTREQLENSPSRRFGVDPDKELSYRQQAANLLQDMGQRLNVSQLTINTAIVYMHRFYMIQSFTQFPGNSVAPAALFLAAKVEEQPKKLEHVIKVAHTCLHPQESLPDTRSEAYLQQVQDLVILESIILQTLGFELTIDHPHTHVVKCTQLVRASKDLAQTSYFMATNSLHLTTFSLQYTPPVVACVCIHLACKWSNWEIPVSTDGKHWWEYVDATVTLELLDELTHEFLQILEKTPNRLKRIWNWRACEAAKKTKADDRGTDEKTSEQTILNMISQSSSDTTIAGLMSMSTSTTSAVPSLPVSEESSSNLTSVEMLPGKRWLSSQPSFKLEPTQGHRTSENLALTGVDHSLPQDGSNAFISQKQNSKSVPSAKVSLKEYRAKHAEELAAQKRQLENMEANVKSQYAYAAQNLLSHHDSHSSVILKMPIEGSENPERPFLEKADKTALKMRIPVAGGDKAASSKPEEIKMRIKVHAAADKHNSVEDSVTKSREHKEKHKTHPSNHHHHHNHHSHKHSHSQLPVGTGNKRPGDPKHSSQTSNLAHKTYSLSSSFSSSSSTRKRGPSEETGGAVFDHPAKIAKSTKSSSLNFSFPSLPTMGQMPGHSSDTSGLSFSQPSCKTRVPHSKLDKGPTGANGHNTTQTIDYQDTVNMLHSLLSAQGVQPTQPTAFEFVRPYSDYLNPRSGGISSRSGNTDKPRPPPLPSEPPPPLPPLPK
T5 sequence (P06493 whole entry): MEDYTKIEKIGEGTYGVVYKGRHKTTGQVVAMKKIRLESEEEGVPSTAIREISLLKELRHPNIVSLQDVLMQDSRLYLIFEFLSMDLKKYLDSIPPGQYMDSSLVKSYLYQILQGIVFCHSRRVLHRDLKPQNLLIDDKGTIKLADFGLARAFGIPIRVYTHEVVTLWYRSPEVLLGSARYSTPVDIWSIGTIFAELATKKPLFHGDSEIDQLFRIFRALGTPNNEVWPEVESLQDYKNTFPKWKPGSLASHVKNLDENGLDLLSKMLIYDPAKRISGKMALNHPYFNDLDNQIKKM
T5 sequence (P14635 whole entry partner): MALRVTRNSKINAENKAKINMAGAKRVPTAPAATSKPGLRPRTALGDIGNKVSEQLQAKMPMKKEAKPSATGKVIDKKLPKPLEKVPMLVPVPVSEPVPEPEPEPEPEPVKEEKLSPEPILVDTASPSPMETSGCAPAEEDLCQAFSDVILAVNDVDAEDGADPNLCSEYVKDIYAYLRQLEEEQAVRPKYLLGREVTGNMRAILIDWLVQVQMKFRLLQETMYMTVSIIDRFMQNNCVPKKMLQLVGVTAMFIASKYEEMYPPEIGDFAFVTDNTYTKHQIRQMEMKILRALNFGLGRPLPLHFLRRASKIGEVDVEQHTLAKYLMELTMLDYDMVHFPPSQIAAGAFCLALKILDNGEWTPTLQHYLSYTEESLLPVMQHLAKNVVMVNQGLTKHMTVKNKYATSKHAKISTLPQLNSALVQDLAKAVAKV
T7 sequence (P11802 whole entry): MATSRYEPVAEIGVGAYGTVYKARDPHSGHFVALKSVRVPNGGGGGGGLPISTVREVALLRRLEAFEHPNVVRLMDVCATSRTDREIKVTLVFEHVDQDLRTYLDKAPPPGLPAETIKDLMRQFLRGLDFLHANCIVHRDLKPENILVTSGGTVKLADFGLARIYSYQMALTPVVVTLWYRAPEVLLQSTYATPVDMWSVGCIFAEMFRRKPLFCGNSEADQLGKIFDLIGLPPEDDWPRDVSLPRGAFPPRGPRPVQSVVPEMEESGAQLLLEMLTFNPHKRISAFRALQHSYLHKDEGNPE
T7 sequence (P24385 whole entry partner): as the sequence (P24385 whole entry partner) above

Row | SMILES | IC50 [1] | IC50 [2] | IC50 [3] | IC50 [4] | IC50 [5] | IC50 [6] | IC50 [7]
1 | CN(C)C(=O)c1sc2cnc(Nc3ccc(N4CCNCC4)cn3)cc2c1C1CCCC1 [Compound A1, 3-cyclopentyl-N,N-dimethyl-5-((5-(piperazin-1-yl)pyridin-2-yl)amino)thieno[2,3-c]pyridine-2-carboxamide] | 0.66 nM | 1100 nM | 5.3 nM | 262 nM | 162 nM | 346 nM | 1.2 nM
2 | CN(C)C(=O)c1sc2cnc(Nc3ccc(N4CCNCC4)cn3)cc2c1C1CCCCC1 [Compound A5, 3-cyclohexyl-N,N-dimethyl-5-((5-(piperazin-1-yl)pyridin-2-yl)amino)thieno[2,3-c]pyridine-2-carboxamide] | 1.1 nM | 3290 nM | 13.4 nM | 266 nM | 39.5 nM | 942 nM | 1.4 nM
3 | N#Cc1sc2cnc(Nc3ccc(N4CCNCC4)cn3)cc2c1C1CCCC1 [Compound B1, 3-cyclopentyl-5-((5-(piperazin-1-yl)pyridin-2-yl)amino)thieno[2,3-c]pyridine-2-carbonitrile] | 0.3 nM | 14.9 nM | 1.3 nM | 24.4 nM | 5.4 nM | 2.8 nM | 1.1 nM
4 | CC(=O)N1CCN(c2ccc(Nc3cc4c(C5CCCC5)c(C#N)sc4cn3)nc2)CC1 [Compound B12, 5-((5-(4-acetylpiperazin-1-yl)pyridin-2-yl)amino)-3-cyclopentylthieno[2,3-c]pyridine-2-carbonitrile] | 1.4 nM | 9790 nM | 2.5 nM | – | 26.2 nM | 10.3 nM | 4.1 nM
